Drawing on PubChem BioAssay (NCI), this text covers GI50 and TGI for 44 compounds.

Test systems include MDA-MB-468 breast; A498 renal; HCC-2998 colon; SW-620 colon; ACHN renal; OVCAR-5 ovarian; MALME-3M melanoma; DU-145 prostate; NCI-H226 lung; KM12 colon; RXF 393 renal; SK-MEL-2 melanoma; HS 578T breast; 786-0 renal; OVCAR-3 ovarian; HCT-15 colon; EKVX NSCLC; OVCAR-8 ovarian; SNB-19 CNS; TK-10 renal; SNB-75 CNS; SK-MEL-5 melanoma; OVCAR-4 ovarian; NCI-H23 lung; MCF7 breast; UO-31 renal; MDA-MB-231 breast; SK-OV-3 ovarian; T-47D breast.

What all share (test): growth of human tumour cells (NCI), 48 h

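Test compounds were applied to cells in 96-well plates for 48 hours at 5 doses. GI50 = concentration required for 50% inhibition of growth. TGI: total growth inhibition.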

For `O=C1c2cc3c(cc2-c2c1c1ccc(Cl)cc1c(=O)n2C[C@H](O)CO)OCO3`, in the assay on MDA-MB-468 breast, the GI50 was 0.0174 µM and the TGI was 0.0553 µM.
For `CCCCCCCCCCCCCCNC(=O)Nc1ccc(Cl)c(Cl)c1`, in that order: 2.82 µM and 9.82 µM.
`CC(=O)NC1C(O[C@H]2C[C@H]3[C@@H]4CC=C5C[C@@H](O)CC[C@]5(C)[C@H]4CC[C@]3(C)[C@H]2[C@H](C)C(=O)CCC(C)C)OCC(O)C1O` (some centres undefined): in the assay with MDA-MB-468 breast, the GI50 is 3.34 µM and the TGI was 10.4 µM.
The corresponding values for `CCCCS(=O)c1sc2nc(-c3cccs3)cc(-c3ccccc3)c2c1N` (centres undefined) are 9.93 µM and 67.3 µM.
For `Cc1cccc(Cn2cc(CO)c3cnccc32)c1`, in that order: 6.34 µM and 43.3 µM.
The corresponding values for `COc1ccc(C(O)c2cc3c(N)c(C(=O)Nc4cccc5ccccc45)sc3nc2C)cc1` (centres undefined) are 2.64 µM and more than 100 µM.
In the case of `Fc1ccc(NC(c2ccc(F)cc2)C2CCN(CCCCc3ccccc3)CC2)cc1` (centres undefined), in the assay with MDA-MB-468 breast, the GI50 was 1.72 µM and the TGI turned out to be 3.43 µM.
For `CC(=O)Oc1ccc(C2=Cc3ccc(OC(C)=O)cc3OC2C)cc1` (centres undefined), in that order: 5.96 µM and 51.4 µM.
The corresponding values for `CCNC(=O)N1CCc2cc(OC)c(OCCc3ccc(OC)cc3)cc2C1c1ccc(Cl)cc1C` (centres undefined) are 2.01 µM and 6.43 µM.
For `COc1ccc(/C=C2\CCC/C(=C\c3ccc(OC)c(OC)c3)C2=O)cc1OC`, in that order: 0.94 µM and 5.47 µM.
`Cn1ccnc1C(=O)/C=C/C=C/c1ccc(C(=O)Nc2ccc(F)cc2)cc1`: in the assay with MDA-MB-468 breast, the GI50 is 1.51 µM and the TGI is 10.5 µM.
For `Nc1nccc(-c2c(-c3ccc(F)cc3)nn3cc(C(F)(F)F)ccc23)n1`, in that order: more than 25 µM and more than 25 µM.
The corresponding values for `COc1cc2nnc3c4cccnc4[nH]c3c2cc1OC` are 0.225 µM and 1.22 µM.
For the compound `Cc1cnc(C(=O)NNc2nc3sc4c(c3c(=O)[nH]2)C(C)CCC4)cn1` (centres undefined), in the assay on MDA-MB-468 breast, the GI50 was 1.81 µM and the TGI came out at 6.08 µM.
For `CN1CCN(c2c(F)cc(NC3=C(Cl)C(=O)c4ncccc4C3=O)cc2F)CC1`, in that order: 1.36 µM and 3.21 µM.
The corresponding values for `CC(C)[C@@H]1CC[C@]2(CO2)[C@@H]2C(=O)OCC(C(=O)O)=C[C@H]21` are 0.443 µM and more than 27.2 µM.
For the compound `CCCCCC(=O)O[C@]1(C(C)=O)CCC2C3CCC4=CC(=O)CC[C@]4(C)C3CC[C@@]21C` (some centres undefined), in the assay on MDA-MB-468 breast, the GI50 was 1.73 µM and the TGI was determined as 6.79 µM.
For `COc1ccc2c(c1)c(/C=N/Nc1ccnc3cc(Cl)ccc13)cn2C`, in that order: 0.217 µM and 0.456 µM.
As to `Nc1nc(=S)c2ncn(C3OC(COP(=O)(O)O)C(O)C3O)c2[nH]1` (centres undefined), in the assay with MDA-MB-468 breast, the GI50 was 0.478 µM and the TGI was 6.3 µM.
For `CCSCC1CC(O)(c2ccccc2)C(c2ccccc2)C(c2ccc(F)cc2)O1` (centres undefined), in that order: 2.94 µM and 10.4 µM.
As to `Clc1ccc2oc3c(NCCCn4ccnc4)c4ccccc4nc3c2c1`, in the assay with MDA-MB-468 breast, the GI50 is 14.7 µM and the TGI came out at 69.2 µM.
For `COc1ccc(-c2cc(/C=C/C(=O)c3ccc(N)cc3)[nH]n2)cc1OC`, in that order: 1.55 µM and 3.48 µM.
For `COc1cccc2nc(Nc3cccc(NC(=O)c4ccc(CN5CCCN(C)CC5)c(C(F)(F)F)c4)c3)ccc12`, the GI50 in the assay on A498 renal was 13.5 µM; with HCC-2998 colon, 1.71 µM; in the assay on SW-620 colon, 1.75 µM; with ACHN renal, 1.87 µM; in the assay on OVCAR-5 ovarian it was 1.71 µM; in the assay on MALME-3M melanoma, 1.72 µM. Besides, the GI50 was 2.19 µM with DU-145 prostate; 1.94 µM in the assay with NCI-H226 lung; 2.49 µM with KM12 colon; 1.66 µM in the assay on RXF 393 renal; 2.15 µM with SK-MEL-2 melanoma; 2.46 µM in the assay with HS 578T breast. Also, the GI50 is 1.72 µM with 786-0 renal; 2.14 µM with OVCAR-3 ovarian; 1.62 µM in the assay with HCT-15 colon; 1.72 µM with EKVX NSCLC; 2.03 µM in the assay on OVCAR-8 ovarian; 1.72 µM in the assay with SNB-19 CNS. In addition, the GI50 is 4.91 µM in the assay with TK-10 renal; 1.52 µM with SNB-75 CNS; 1.71 µM with SK-MEL-5 melanoma; 1.56 µM with MDA-MB-468 breast; 2.67 µM with OVCAR-4 ovarian; 1.68 µM in the assay with NCI-H23 lung. Also, the GI50 is 1.59 µM with MCF7 breast; 1.74 µM in the assay with UO-31 renal; 1.83 µM with MDA-MB-231 breast; 4.33 µM with SK-OV-3 ovarian; 5.43 µM in the assay on T-47D breast. Moreover, the TGI was 31.4 µM in the assay on A498 renal; 3.09 µM with HCC-2998 colon; 3.24 µM in the assay with SW-620 colon; 3.62 µM with ACHN renal; 3.29 µM with OVCAR-5 ovarian; 3.12 µM in the assay with MALME-3M melanoma. In addition, the TGI worked out at 4.91 µM in the assay on DU-145 prostate; 4.65 µM in the assay on NCI-H226 lung; 6.14 µM with KM12 colon; 3.24 µM with RXF 393 renal; 4.93 µM with SK-MEL-2 melanoma; 8.09 µM in the assay on HS 578T breast. Besides, the TGI in the assay on 786-0 renal stood at 3.35 µM; in the assay on OVCAR-3 ovarian, 5.45 µM; in the assay on HCT-15 colon, 3.03 µM; in the assay on EKVX NSCLC it was 3.1 µM; in the assay with OVCAR-8 ovarian it was 4.75 µM; in the assay on SNB-19 CNS it was 3.17 µM. For the same compound, the TGI came out at 19.3 µM with TK-10 renal; 7.97 µM in the assay with SNB-75 CNS; 3.08 µM in the assay with SK-MEL-5 melanoma; 2.98 µM in the assay with MDA-MB-468 breast; 10.7 µM in the assay on OVCAR-4 ovarian; 3.07 µM in the assay with NCI-H23 lung. Also, the TGI with MCF7 breast was determined as 3 µM; in the assay on UO-31 renal, 3.43 µM; in the assay on MDA-MB-231 breast it was 3.4 µM; in the assay on SK-OV-3 ovarian, 21.3 µM; in the assay on T-47D breast, 41.4 µM.
In the case of `COc1ccc(-c2nc3ccc(Cc4ccc5nc(-c6ccc(OC)cc6)[nH]c5c4)cc3[nH]2)cc1`, in the assay with MDA-MB-468 breast, the GI50 is 0.026 µM and the TGI turned out to be 0.155 µM.
For `COCCN(Cc1ccc(F)cc1)c1ccc(CO)c(Cl)c1`, in that order: 0.0406 µM and 0.163 µM.
For `COCCOC1=C(Cl)C(=O)c2ccccc2C1=O`, in that order: 1.59 µM and 3.22 µM.
For `CNCc1ccc(-c2cc(-c3nc(-c4ccc(S(=O)(=O)C(C)C)cc4)cnc3N)on2)cc1`, in that order: 2.26 µM and 20.3 µM.
Take `Cc1cc(Cl)nc(N(CCNc2ccnc3cc(Cl)ccc23)Cc2ccco2)n1`: in the assay with MDA-MB-468 breast, the GI50 is 1.62 µM and the TGI amounted to 3.46 µM.
The corresponding values for `COc1ccccc1Oc1nccc(-c2c(-c3ccc(F)cc3)ncn2C2CCNCC2)n1` are 3.17 µM and 14.3 µM.
For `ClCCOCCn1cnc2c(Cl)nc(Cl)nc21`, in that order: 3.16 µM and 25 µM.
As to `COc1ccc(-c2[nH]c3ccc(OC)cc3c2C=C(C#N)C#N)cc1`, in the assay on MDA-MB-468 breast, the GI50 was 0.494 µM and the TGI was more than 100 µM.
For `COc1ccccc1CNCCN1C(=O)c2ccc3c4c(ccc(c24)C1=O)C(=O)N(CCNCc1ccccc1OC)C3=O`, in that order: 0.426 µM and 0.893 µM.
The corresponding values for `CC[C@H](C)[C@H](NC(=O)[C@H]1CCCCN1C)C(=O)N(C)[C@H](C[C@@H](OC(C)=O)c1nc(C(=O)NC23CC(C(=O)OC)(C2)C3)cs1)C(C)C` are 0.000292 µM and 0.0714 µM.
Consider `S=C1SCN(Cc2ccccc2)CN1Cc1ccco1`, for which, in the assay on MDA-MB-468 breast, the GI50 is 1.04 µM and the TGI was 13.5 µM.
For `COc1cc(-c2nccc3[nH]c(-c4ccc5cc[nH]c5c4)nc23)cc(OC)c1OC`, in that order: 0.0176 µM and 1.56 µM.
The corresponding values for `C#Cc1ccc(-n2c(/C=C/c3ccc(O)cc3)nc3ncccc3c2=O)cc1` are 2.31 µM and 7.08 µM.
The corresponding values for `CCN(CC)c1ccc2nc3ccc(=[N+](CC)CC)cc-3oc2c1` are 0.0631 µM and 0.231 µM.
For `CCC(c1ccccc1)c1noc(CCN(CC)CC)n1` (centres undefined), in the assay on MDA-MB-468 breast, the GI50 is 2.46 µM and the TGI is 8.05 µM.
For `O=C(Nc1ccc(OC(F)(F)Cl)cc1)c1cnc(N2CC[C@@H](O)C2)c(-c2ccn[nH]2)c1`, in that order: 4.89 µM and 23.1 µM.
With `CCc1ccc(Nc2cc(C)c3ccc(O)cc3n2)cc1`, in the assay on MDA-MB-468 breast, the GI50 was 3.57 µM and the TGI was determined as 12.8 µM.
For `COc1ccccc1C1c2cc3c(cc2OC2(OC)COC(=O)C12)OCO3` (centres undefined), in the assay on MDA-MB-468 breast, the GI50 was 20.2 µM and the TGI was found to be 95.4 µM.
As to `COc1cc(/C=C/c2cc(/C=C/c3ccc(O)c(OC)c3)n(C(=O)c3ccccc3Br)n2)ccc1O`, in the assay with MDA-MB-468 breast, the GI50 is 2.24 µM and the TGI turned out to be 5.81 µM.
For `Cc1cc(Br)c(NC(=O)c2c(-c3c(Cl)cccc3Cl)noc2C)c(Br)c1`, in the assay on MDA-MB-468 breast, the GI50 is more than 100 µM and the TGI was more than 100 µM.
As for `O=C(COc1ccc(/C=C2\Oc3ccccc3C2=O)cc1)Nc1nc2ccccc2s1`, in the assay with MDA-MB-468 breast, the GI50 is 0.487 µM and the TGI is 75.2 µM.
